In patent publication US8772500B2, “TRPV3 modulators” (AbbVie Inc., priority 2011, dated 2014):
Read-outs that look alike come from different tables or passages of the source.

Columns and labels:
[1] = In vitro human microsomal stability assay; type: in vitro ADME
Procedure, shortened: (§1)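 Liver microsomes: Sprague-Dawley rat for rat assay, human for human assay; 37 °C; NADPH cofactor, also spiked into time-zero plates.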

[2] = In vitro rat microsomal stability assay; type: in vitro ADME, rat (Sprague-Dawley)
Procedure, shortened: as §1

CD1 mice = assay: In vivo chronic constriction injury (CCI) model of neuropathic pain, mechanical allodynia (von Frey); settings: 100 mg/kg oral dose, 1 hour after dosing, average of eight mice; vehicle 0%, control 100%
Procedure: Test compounds were evaluated for analgesic effect in an in vivo chronic constriction injury (CCI) model of neuropathic pain. CD1 mice (Charles River) were used for these studies. Prior to testing (2-4 weeks) animals underwent a surgical procedure consisting of approximately 3 loose ligatures around the sciatic nerve. Following sterilization procedures, under isofluorane anesthetic, a 1.5 cm incision was made dorsal to the pelvis. The biceps femoris and gluteous superficialis (right side) were separated and the sciatic nerve exposed, isolated, and 2-4 loose ligatures (5-0 chromic gut) with less than 1 mm spacing were placed around it. Following hemostasis, the wound was sutured (layer of muscle closed with 5-0 nylon suture, and the wound closed with surgical staples) and coated with iodine. The mice were allowed to recover on a warming plate and were returned to their home cages (soft bedding) when able to walk on their own.
Two to four weeks after the surgery, test compound was administered orally (PO) in these mice, and mechanical allodynia was evaluated 1 hour after oral dosing where the threshold to response was assessed using calibrated von Frey monofilaments. The von Frey monofilaments were applied to the hind paw at increasing forces until the animal responded by lifting its paw. […]
Each test compound was evaluated in eight different mice. […]

human TRPV3 = target: T1, human TRPV3 (Homo sapiens, UniProt Q8NET8); assay: In vitro antagonism of recombinant human TRPV3 activation (FLIPR Tetra calcium assay, 2-APB as agonist); type: cell-based; settings: HEK293 cells stably expressing human TRPV3, 2-APB 80 μM
T1 construct: expressed in transfected cells
T1 sequence (Q8NET8 1-790): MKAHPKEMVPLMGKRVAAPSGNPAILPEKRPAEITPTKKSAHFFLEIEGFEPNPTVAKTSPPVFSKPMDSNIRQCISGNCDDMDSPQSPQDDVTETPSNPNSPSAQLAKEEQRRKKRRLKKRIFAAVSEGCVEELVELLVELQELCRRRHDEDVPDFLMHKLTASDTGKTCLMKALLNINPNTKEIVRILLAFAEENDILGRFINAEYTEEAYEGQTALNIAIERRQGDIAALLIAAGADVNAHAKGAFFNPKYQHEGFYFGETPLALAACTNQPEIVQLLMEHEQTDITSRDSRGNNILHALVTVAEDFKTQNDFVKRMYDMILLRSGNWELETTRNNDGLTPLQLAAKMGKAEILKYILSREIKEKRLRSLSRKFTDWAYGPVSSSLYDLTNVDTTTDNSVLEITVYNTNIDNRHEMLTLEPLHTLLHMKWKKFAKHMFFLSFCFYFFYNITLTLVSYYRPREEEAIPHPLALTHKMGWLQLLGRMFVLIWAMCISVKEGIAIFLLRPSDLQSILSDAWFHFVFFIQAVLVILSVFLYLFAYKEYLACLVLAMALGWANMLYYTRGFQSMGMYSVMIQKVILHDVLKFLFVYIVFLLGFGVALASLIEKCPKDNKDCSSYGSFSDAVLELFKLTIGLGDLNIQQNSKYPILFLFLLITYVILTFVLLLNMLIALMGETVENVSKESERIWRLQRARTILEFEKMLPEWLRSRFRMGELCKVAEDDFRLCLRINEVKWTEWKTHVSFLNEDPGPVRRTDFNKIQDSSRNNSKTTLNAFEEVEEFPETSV
Procedure, shortened: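 HEK293 cells stably expressing human TRPV3, loaded with Calcium-4 dye for 90-120 min; compound added 3 min before 2-APB at 80 μM (its EC80). Fluorescence (max minus min) over 10 min expressed as % of maximal 2-APB response without antagonist; IC50 mostly averaged from n≧2 runs.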

[3] = 0.5 μM substrate, 0.25 mg/mL microsomal protein, pH 7.4, 37° C., NADPH, 30 minutes
[4] = range class, read-out: IC50 (reported range)
[5] = Sprague-Dawley, rat, 0.5 h, 0.5 μM, pH 7.4

| IC50 (human TRPV3; [4]) [µM] | HUMAN MICROSOMAL STABILITY (% REMAINING AFTER 30 MINUTES) ([1]; human, 0.5 h, 0.5 μM, pH 7.4) [%] | RAT MICROSOMAL STABILITY (% REMAINING AFTER 30 MINUTES) [2, 5] [%] | Molecule | HUMAN […] (% REMAINING AFTER 30 MINUTES) [1, 3] [%] | RAT […] (% REMAINING AFTER 30 MINUTES) [2, 3] [%] | % EFFECT (CD1 mice) [%] | IC50 (human TRPV3; mostly average of n≧2, read-out: IC50 (actual measured value, shown parenthetically)) [µM] | HUMAN MICROSOMAL STABILITY (% REMAINING AFTER 30 MINUTES) [1, 3] [%] | RAT MICROSOMAL STABILITY (% REMAINING AFTER 30 MINUTES) [2, 3] [%] |
| --- | --- | --- | --- | --- | --- | --- | --- | --- | --- |
| – | – | – | C[C@]1(O)C[C@](c2cc(C(F)(F)F)ccn2)([C@H](O)c2ccccn2)C1 (relative stereo) [Example 285, cis-3-[(S)-hydroxy(pyridin-2-yl)methyl]-1-methyl-3-[4-(trifluoromethyl)-pyridin-2-yl]cyclobutanol] | 83 | 69 | 59 | – | – | – |
| 0.501 to 1 | 41 | 13 | CC1(O)CC(c2cncc(C(F)(F)F)c2)(C(O)c2ccccn2)C1 [Example 308, cis-3-[(S)-hydroxy(pyridin-2-yl)methyl]-1-methyl-3-[5-(trifluoromethyl)-pyridin-3-yl]cyclobutanol] | – | – | – | – | – | – |
| 1.1 to 5 | >85 | >85 | OC1CC(c2ccc(Cl)c(Cl)c2)(C(O)c2ncccn2)C1 [Example 312, (trans)-3-(3,4-dichlorophenyl)-3-((S)-hydroxy(pyrimidin-2-yl)methyl)-cyclobutanol] | – | – | – | – | – | – |

| Molecule | IC50 (human TRPV3; [4]) [µM] | HUMAN MICROSOMAL STABILITY (% REMAINING AFTER 30 MINUTES) ([1]; human, 0.5 h, 0.5 μM, pH 7.4) [%] | RAT MICROSOMAL STABILITY (% REMAINING AFTER 30 MINUTES) [2, 5] [%] | HUMAN […] (% REMAINING AFTER 30 MINUTES) [1, 3] [%] | RAT […] (% REMAINING AFTER 30 MINUTES) [2, 3] [%] | % EFFECT (CD1 mice) [%] | IC50 (human TRPV3; mostly average of n≧2, read-out: IC50 (actual measured value, shown parenthetically)) [µM] | HUMAN MICROSOMAL STABILITY (% REMAINING AFTER 30 MINUTES) [1, 3] [%] | RAT MICROSOMAL STABILITY (% REMAINING AFTER 30 MINUTES) [2, 3] [%] |
| --- | --- | --- | --- | --- | --- | --- | --- | --- | --- |
| pyridin-2-yl{1-[5-(trifluoromethyl)pyridin-3-yl]cyclobutyl}methanol [Example 110] | 0.05 to 0.5 | – | – | – | – | – | 0.5 | 8.0 | 2.8 |
